Assay results: patent publication US10189957B2, “Formulation process method to produce spray dried products” (ISP INVESTMENTS LLC, priority 2007, dated 2019)

Key:
[1] = Dissolution test, USP apparatus II (paddles), powders in size 1 hard gelatin capsules; format: physicochemical; details: amount equivalent to 50 mg efavirenz, capsules with additional 15% croscarmellose sodium, 37° C.
Protocol: A. The dissolution properties of both amorphous compositions were tested and compared to crystalline EFV. An amount equivalent to 50 mg efavirenz was analyzed. Powders were hand-filled into size 1 hard gelatin capsules (Shinogi Qualicaps) with an additional 15% croscarmellose sodium (Ac-Di-Sol®, FMC BioPolymers). USP apparatus II (paddles) (VK 7010®, Varian Inc.) was used, with a bath temperature of 37° C. and a paddle speed of 50 rpm for 60 minutes.
B. Each of the amorphous powders from Examples 1 and 2 achieved higher rate of release and maximum aqueous concentration than the crystalline form (FIG. 6, Table 2). The initial rate of release from the amorphous powders was more than 10-times higher than the crystalline form.

[2] = Solubility in ethyl acetate at standard laboratory conditions; format: physicochemical; details: about 25° C. and 1 atmosphere
Protocol: A dispersion was prepared containing 1 ezetimibe: 1 PVP K-12 at 1% total solids in ethyl acetate at standard laboratory conditions (about 25° C. and 1 atmosphere).

| Compound | extent of release ([1]; paddle speed 50 rpm for 60 minutes) [%] | rate of release, 0-15 min ([1]; paddle speed 50 rpm, 0-15 min) [mg/min] | solubility in ethyl acetate [2] |
| --- | --- | --- | --- |
| O=C1Nc2ccc(Cl)cc2[C@@](C#CC2CC2)(C(F)(F)F)O1 [crystalline EFV, efavirenz] | 10 | 0.13 | – |
| O=C1[C@H](CC[C@H](O)c2ccc(F)cc2)[C@@H](c2ccc(O)cc2)N1c1ccc(F)cc1 [ezetimibe] | – | – | soluble |
